Assays:
MPTP-induced mouse [1] = experiment: Concentration of dopamine in striatum of MPTP-induced mouse (HPLC); assay type: in vivo, C57BL/6 mice; conditions: 1 mg/kg oral once a day, FIG. 4
Experimental: 7 days after the compounds described above are respectively administered to the three groups, the mice in each group were sacrificed by cervical dislocation and brain tissues were immediately taken out of the mice. Striatum was collected from the brain tissue, 0.5 ml of a HPLC assay diluent (0.1 M HClO4, 0.1 mM EDTA) was added to the striatum, and a tissue homogenate was then prepared using an ultrasonic processor. The homogenate was centrifuged at 12,000 rpm for 15 minutes, and the supernatant was filtered with a nitrocellulose filter (0.2 um, Millipore). For HPLC analysis, HR-80 column (80 mm×4.6 mm, particle size: 3 μm ESA, USA) was used, the flow rate of a mobile phase (0.07 M monobasic sodium phosphate, 1 mM sodium octasulfonic acid, 0.1 uM EDTA, 5% acetonitrile, pH 3.2) was maintained at 0.7 ml/min, and the electrode potential of an electrochemical detector (Coulochem III, ESA, USA) was at E1=−100 mV, E2=350 mV.

[2] = system: MAO-B-deficient human neuroblastoma SH-SY5Y cells; experiment: Transmembrane potential of mitochondria (MitoPT kit) in MPP+-treated cells; assay type: cell-based; conditions: 2 mM MPP+, 24 hours, FIG. 16
Experimental: In this embodiment, MAO-B-deficient human neuroblastoma SH-SY5Y cells (Korean Cell Line Bank) were used. The cells were incubated in a DMEM medium in 5% of CO2 at 37° C. for 24 hours. The cultured cells were divided into five groups, 2 mM of 1-methyl-4-phenyl-pyridium (MPP^+) was added to each group, three of the five groups were respectively treated with 1 nM, 10 nM and 50 nM of CBI, one of the other two groups was treated with 10 nM of rasagiline, and the CBI- or rasagiline-treated four groups were further incubated in 5% of CO2 at 37° C. for 24 hours. The group with only MPP^+ added thereto was incubated under the same conditions as describe dabove. Subsequently, according to manufacturer's protocols, the transmembrane potential of mitochondria was determined using MitoPT™ kit (Immunochemistry Technology). The transmembrane potential of mitochondria was confirmed using a fluorescent plate reader (Tecan, Austria). […] Thus, RFU values (red fluorescence value/green fluorescence value) were determined from the results, and the results are shown in FIG. 16.

MPTP-induced mouse [3] = experiment: Number of neurites and spines per neuron in MPTP-induced mouse (confocal microscopy); assay type: in vivo, C57BL/6 mice; conditions: 1 mg/kg oral once a day for 10 days after MPTP
Experimental: To observe whether or not the number of neurites and spines per neuron in the tissues was increased, a coronal slice with a thickness of 200 um containing striatum or substantia nigra was prepared using a vibratome. Each group of mice was sacrificed, and the brain was taken out of each group and then placed in a cold, highly-concentrated sucrose dissection buffer bubbled with carbogen (5% CO2 and 95% O2) (87 mM NaCl, 2.5 mM KCl, 1.25 mM NaH2PO4, 25 mM NaHCO3, 1 mM CaCl2, 3 mM MgCl2, 10 mM dextrose, and 75 mM sucrose). While the vibratome was performed, a slicing chamber was filled with the uniformly carbogenated sucrose dissection buffer. After the slicing process was terminated, all the slices were washed with PBS, and fixed with 4% paraformaldehyde in a PBS solution. The fixed brain slices were placed on a 1.5% agarose (in PBS) block. Images thereof were obtained using a confocal microscope (ZEISS LSM 510 META) by using Zeiss LSM image browser software (Carl Zeiss Microimaging, Germany, version 4.0 SP2).

NC(=O)OCc1cc(-c2ccc(OCc3ccccc3)cc2)no1 [CBI, carbamic acid 3-(4-benzyloxy-phenyl)-isoxazole-5-yl methylester]
restoration of the concentration of dopamine in striatum compared with normal mice (MPTP-induced mouse [1]): about 70% | transmembrane potential of mitochondria ([2]; 1 nM, 10 nM and 50 nM): stabilized concentration-dependently | stability effect of the transmembrane potential of mitochondria relative to same concentration of rasagiline ([2]; rasagiline 10 nM): no less than 2 times | number of neurites (MPTP-induced mouse [3]; FIG. 23): increased | number of spines (MPTP-induced mouse [3]; FIG. 24): recovered to the level of normal cells

From patent US9290464B2 (priority 2010, dated 2016)
